Values quoted from earlier work in patent US8173824B2, “Process for producing vitamin D derivative using convergent method” (Chugai Seiyaku Kabushiki Kaisha, priority 2005, dated 2012).

Assays:
[1] = compared with the conventional vitamin D derivatives; background statement
human keratinocyte = conditions: background statement, see WO 2001/096293

In the case of `C=C1/C(=C\C=C2/CCC[C@]3(C)C([C@H](C)OCC(=O)NCC(F)(F)C(F)(F)F)=CCC23)C[C@@H](O)C[C@@H]1O` (stereo partly drawn) [Formula (1), [{(5Z,7E)-(1S,3R,20S)-1,3-dihydroxy-9,10-secopregna-5,7,10(19),16-tetraen-20-yl}oxy]-N-(2,2,3,3,3-pentafluoropropyl)acetamide], the calcium level-raising activity [1] is given as “lower than the conventional vitamin D derivatives” and the “human keratinocyte growth inhibition activity” value (human keratinocyte) is given as “exhibits useful human keratinocyte growth inhibition activity”.
